In PubChem BioAssay (NCI):
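Cells were grown in 96-well plates and exposed to each compound for 48 hours at five concentrations; endpoints were interpolated linearly between bracketing concentrations, or set to the highest concentration if not reached. TGI marks complete inhibition of growth.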

What was measured:
Assay in all cases: growth of human tumour cells (NCI), 48 h
CCRF-CEM leukemia = test system: CCRF-CEM leukemia
K-562 leukemia = test system: K-562 leukemia
LOX IMVI melanoma = test system: LOX IMVI melanoma
OVCAR-4 ovarian = test system: OVCAR-4 ovarian
SNB-75 CNS = test system: SNB-75 CNS
HL-60(TB) leukemia = test system: HL-60(TB) leukemia
MALME-3M melanoma = test system: MALME-3M melanoma
RXF 393 renal = test system: RXF 393 renal
IGROV1 ovarian = test system: IGROV1 ovarian
UACC-257 melanoma = test system: UACC-257 melanoma
M14 melanoma = test system: M14 melanoma
OVCAR-3 ovarian = test system: OVCAR-3 ovarian
HOP-92 NSCLC = test system: HOP-92 NSCLC
CAKI-1 renal = test system: CAKI-1 renal
SW-620 colon = test system: SW-620 colon
HCT-15 colon = test system: HCT-15 colon
OVCAR-5 ovarian = test system: OVCAR-5 ovarian
MCF7 breast = test system: MCF7 breast

Structure (SMILES) | TGI (CCRF-CEM leukemia) [µM] | TGI (K-562 leukemia) [µM] | TGI (LOX IMVI melanoma) [µM] | TGI (OVCAR-4 ovarian) [µM] | TGI (SNB-75 CNS) [µM] | TGI (HL-60(TB) leukemia) [µM] | TGI (MALME-3M melanoma) [µM] | TGI (RXF 393 renal) [µM] | TGI (IGROV1 ovarian) [µM] | TGI (UACC-257 melanoma) [µM] | TGI (M14 melanoma) [µM] | TGI (OVCAR-3 ovarian) [µM] | TGI (HOP-92 NSCLC) [µM] | TGI (CAKI-1 renal) [µM] | TGI (SW-620 colon) [µM] | TGI (HCT-15 colon) [µM] | TGI (OVCAR-5 ovarian) [µM] | TGI (MCF7 breast) [µM]
O=C1C(=O)c2c(oc(=O)c3ccccc23)-c2ccccc21 | > 25 | > 25 | > 25 | 20.3 | > 25 | 15 | > 25 | > 25 | > 25 | > 25 | > 25 | > 25 | > 25 | > 25 | > 25 | > 25 | > 25 | > 25
COc1ccc2cc(Oc3ccc(Cl)cc3)c(=O)oc2c1 | > 100 | > 100 | > 100 | > 100 | > 100 | > 100 | > 100 | > 100 | > 100 | > 100 | > 100 | > 100 | > 100 | > 100 | > 100 | > 100 | > 100 | > 100
CC(=O)C(=[N+]=[N-])C(=O)NCC#N | > 10 | > 10 | > 10 | > 10 | > 10 | > 10 | > 10 | > 10 | > 10 | > 10 | > 10 | > 10 | > 10 | > 10 | > 10 | > 10 | > 10 | > 10
CC(C)=CCC[C@@H](C)C1=C(O)C(O)C(C)=C2N=C(c3ccccc3)C(=O)OC21 (some centres undefined) | > 5.47 | > 25 | > 25 | > 25 | > 19.3 | 1.63 | 15.4 | > 17.1 | > 25 | > 25 | > 17.8 | > 25 | > 7.8 | 9.89 | > 25 | > 25 | > 25 | > 25
CN(C)C=C1C(=O)c2c(Br)sc(Br)c2C1=O | > 100 | 66.4 | 38.9 | 31.7 | 43.5 | 53.7 | 29.3 | 42.4 | 46.8 | 33 | 33.8 | 40.8 | 37.1 | 36 | > 100 | 54.7 | 76.2 | > 100
O=C(c1ccccc1)c1ccc2nc3n(c2c1)C(c1c(F)cccc1F)SC3 (centres undefined) | 37.6 | > 100 | 36.6 | > 73.6 | 29.4 | > 100 | 46.7 | 72.8 | > 100 | 91.1 | 15.4 | 24.1 | > 100 | 44.4 | > 100 | > 59 | > 91.1 | 50.5
O=C1NC(=O)C(Cc2ccccc2)(c2cccnc2)N1 (centres undefined) | > 100 | > 100 | > 100 | > 100 | > 100 | > 100 | > 100 | > 100 | > 100 | > 100 | > 100 | > 100 | > 100 | > 100 | > 100 | > 100 | > 100 | > 100
CN1CCC2(CC1)SC[C@H]1C(=O)N(c3ccc(Cl)cc3)C(=O)N12 | > 100 | > 100 | > 100 | > 100 | > 100 | > 100 | > 100 | > 100 | > 100 | > 100 | > 100 | > 100 | > 100 | > 100 | > 100 | > 100 | > 100 | > 100
c1ccc2c(C3CCN(CCN4CCOCC4)C3)c[nH]c2c1 (centres undefined) | > 100 | > 100 | > 100 | > 100 | > 100 | > 100 | > 100 | > 100 | > 100 | > 100 | > 100 | > 100 | > 100 | > 100 | > 100 | > 100 | > 100 | > 100
CCC(C)C(C(=O)N/N=C1/SCC(=O)N1c1ccccc1)C(=O)N/N=C1/SCC(=O)N1c1ccccc1 (centres undefined) | > 100 | > 100 | > 100 | 33.3 | > 100 | > 100 | 44.7 | 42.9 | > 100 | > 100 | > 100 | > 100 | 45.2 | > 100 | > 100 | > 100 | > 100 | > 100
CCOC(=O)C1=CN/C(=C(/C)C(=O)OC)SC1C(=O)OCC (centres undefined) | > 100 | > 31.6 | > 100 | > 100 | > 100 | > 100 | > 100 | > 100 | > 100 | > 100 | > 100 | > 100 | > 100 | > 100 | > 100 | > 100 | > 100 | > 100
O=C(N/N=C/c1ccc2c(c1)OCO2)Nc1ccccc1Cl | > 100 | > 100 | > 100 | > 100 | 2.38 | > 23.1 | 56.2 | 12.2 | > 35.3 | > 100 | > 39.5 | 2.82 | > 40 | > 100 | > 100 | > 100 | > 100 | > 100
N#C/C(=C\c1cn(Cc2ccccc2)c2ccccc12)c1nn(-c2ccccc2)c(N)c1C#N | 47.8 | > 100 | > 100 | 13.7 | 15.3 | > 100 | 47.4 | 19.2 | 30.7 | 50 | 46.1 | 33.7 | 27.2 | 47 | 36.3 | > 100 | 51.5 | > 100
COCC(N=CN1CCCc2ccccc2[C@@H]1CCCCl)C(C)(C)C (some centres undefined) | > 100 | 14.2 | 24.2 | 36 | 11.8 | 8.97 | 6.27 | 32.5 | 14.2 | 7.68 | 18.3 | 0.729 | 30 | 31.9 | 57.6 | > 100 | 49.5 | 4.28
CCOC(=O)C(SCCO)C(C(=O)OCC)n1cnc2c(N)ncnc21 (centres undefined) | 6.39 | 14.6 | 15.1 | > 48.3 | 24.7 | 5.46 | 23.8 | 29.6 | 36.5 | > 80.2 | 9.83 | 25.4 | 13.4 | 15.1 | 12.5 | 22.5 | 18.6 | 20.1
CC1=NN(C(=O)CC(=O)Nc2ccc(C)cc2)C(=O)C1N=Nc1ccc(C(=O)O)cc1 (centres undefined) | > 100 | > 100 | > 100 | > 100 | > 100 | > 100 | > 100 | > 100 | > 100 | > 100 | > 100 | > 100 | > 100 | > 100 | > 100 | > 100 | > 100 | > 100
CC(=O)O[C@H]1CC[C@H]2[C@@H]3CCC4C(C)=NNC(=O)C4[C@H]3CC[C@]12C (some centres undefined) | > 100 | > 100 | > 75.4 | > 100 | 33.7 | > 100 | > 100 | > 100 | > 79.4 | > 100 | > 100 | > 100 | > 100 | > 100 | > 100 | > 100 | > 100 | > 100
COc1ccc(Nc2nnc(CCCCCCCCc3nnc(Nc4ccc(OC)cc4)o3)o2)cc1 | > 100 | > 100 | > 100 | > 100 | > 100 | > 100 | > 100 | > 100 | > 100 | > 100 | > 100 | > 100 | > 100 | > 100 | > 100 | > 100 | > 100 | > 100
